Data reported in US20260018245A1, “SYSTEMS AND METHODS FOR IDENTIFYING AND TARGETING COLLATERAL LETHAL GENES” (The Regents of the University of Michigan, priority 2022, published 2026).

Experiments:
Format in all cases: cell-based
[1] = tested on: reductive MTHFD2 flux in SKOV3 cells; experiment: Reductive MTHFD2 flux by 2,3,3-[2H]-serine tracing; settings: SKOV3, increasing rotenone doses, 8 h
Protocol: (§1) FIG. 4 Dynamic flux analysis with parallel tracers to quantify oxidative MTHFD2 flux. a, Oxidative MTHFD2 flux and percentage decrease in OCRfollowing MTHFD2 inhibition in SKOV3 cells treated with rotenone (0, 31, 62, 125, 250, 500 or 1,000 nM) and MTHFD2 inhibitor (0 or 60 μM). Oxidative MTHFD2 flux is proportional to [2H1]-serine/[2H1]-NADH enrichment in cells cultured with 4-[2H]-glucose for 8 h. Percentage decrease in OCR is estimated in SKOV3 cells treated with 60 μM MTHFD2i compared with 0 μM MTHFD2i. Oxidative flux data are combined from two independent experiments (n=4), with mean±s.d. estimated using error propagation. […] (n=6) and analysed using two-tailed Welch's t-test. e, Ratio of [2H2]-serine/[2H]-NADH enrichment in SKOV3 and OVCAR8 cells at 2 h after combined tracer introduction of 4-[2H]-glucose and [2H]-formate, representing the normalized contribution of [2H]-NADH to [2H2]-serine via oxidative MTHFD2 flux. Data combined from two independent experiments (n=6), with mean±s.d. estimated using error propagation and analysed by two-tailed Welch's t-test. f, [2H2]-serine enrichment in SKOV3 cells expressing shScramble or shUQCR11 at 2 h after combined tracer introduction of 4-[2H]-glucose and [2H]-formate. […] (n=5) and analysed using one-tailed non-parametric Mann-Whitney test. […]

[2] = tested on: SKOV3 cells; experiment: Oxygen consumption rate (OCR) measurement; settings: SKOV3, increasing rotenone concentrations
Protocol: FIG. 4 Dynamic flux analysis with parallel tracers to quantify oxidative MTHFD2 flux. a, Oxidative MTHFD2 flux and percentage decrease in OCRfollowing MTHFD2 inhibition in SKOV3 cells treated with rotenone (0, 31, 62, 125, 250, 500 or 1,000 nM) and MTHFD2 inhibitor (0 or 60 μM). Oxidative MTHFD2 flux is proportional to [2H1]-serine/[2H1]-NADH enrichment in cells cultured with 4-[2H]-glucose for 8 h. Percentage decrease in OCR is estimated in SKOV3 cells treated with 60 μM MTHFD2i compared with 0 μM MTHFD2i. Oxidative flux data are combined from two independent experiments (n=4), with mean±s.d. estimated using error propagation. OCR data are representative of two independent experiments and presented as mean±s.d. estimated using error propagation (n=5). b, Reductive MTHFD2 flux and basal OCR in SKOV3 cells treated with rotenone (0, 31, 62, 125, 250 or 1,000 nM) and MTHFD2 inhibitor (0 or 60 μM). Reductive MTHFD2 flux is proportional to [2H1]-NADH in cells cultured with 2,3,3-[2H]-serine for 8 h. OCR data are representative of two independent experiments and presented as mean±s.e.m. (n=5). c, Schematic of combination tracer experiment with 4-[2H]-glucose and [2H]-formate to track oxidative MTHFD2 flux. […] (n=6) and analysed using two-tailed Welch's t-test. e, Ratio of [2H2]-serine/[2H]-NADH enrichment in SKOV3 and OVCAR8 cells at 2 h after combined tracer introduction of 4-[2H]-glucose and [2H]-formate, representing the normalized contribution of [2H]-NADH to [2H2]-serine via oxidative MTHFD2 flux. Data combined from two independent experiments (n=6), with mean±s.d. estimated using error propagation and analysed by two-tailed Welch's t-test. f, [2H2]-serine enrichment in SKOV3 cells expressing shScramble or shUQCR11 at 2 h after combined tracer introduction of 4-[2H]-glucose and [2H]-formate. […] (n=5) and analysed using one-tailed non-parametric Mann-Whitney test.
OCR measurement. […] Live OCR was measured for up to 16 h after attaching the lid.
Mito stress test with the Seahorse analyser. Mitochondrial OCR was measured using a Seahorse XFe96 analyser (Agilent Technologies). […]

[3] = tested on: oxidative MTHFD2 flux in SKOV3 cells; experiment: Oxidative MTHFD2 flux by 4-[2H]-glucose tracing; settings: SKOV3, increasing rotenone doses (0-1,000 nM), 8 h
Protocol: as §1

[4] = tested on: parental ovarian cancer lines and isogenic SKOV3 lines; experiment: Viability with MTHFD2 inhibitor and uridine supplementation; settings: uridine 50 μM supplementation
Protocol: FIG. 15 Investigating metabolic consequence of Complex III impairment and activity of paralogous pathways other than oxidative MTHFD2. (a) Effect of MTHFD2 inhibitor ([…]) and uridine (50 μM) supplementation on viability of parental ovarian cancer lines that are UQCR11—intact (SKOV3) or UQCR11-null (HeyA8, OVCAR8, CAOV3). Data are representative of two independent experiments and presented as mean±s.d. (n=6). Data analyzed with one-way ANOVA with Tukey's correction for multiple comparisons. (b) Effect of MTHFD2 inhibitor and uridine supplementation on viability of isogenic SKOV3 lines expressing shScramble or shUQCR11. […] Data analyzed with one-way ANOVA with Tukey's correction for multiple comparisons. […] (n=6) and analyzed using two-tailed Student's t-test. (d) mRNA expression of NNT, IDH2, IDH3A measured via qRT-PCR after knocking down with shNNT, shIDH2, and shIDH3A, relative to scramble shRNA (shScr), verifying knockdown efficiency in SKOV3 and OVCAR8 cell-lines. […] Data analyzed using unpaired two-tailed Student's t-test. […] Data are analyzed using ordinary one-way ANOVA with multiple comparisons. […] Loss of viability calculated by comparing respective viability in vehicle control-treated cells to MTHFD2 inhibitor-treated cells. […] (n=6) and analyzed using ordinary one-way ANOVA with Dunnett's correction for multiple comparisons. Error bars are calculated using propagation of error principles.

Row | Compound | reductive MTHFD2 flux [1] | basal OCR [2] | oxidative MTHFD2 flux [3] | rescue of cells from MTHFD2 inhibition [4]
1 | C=C(C)[C@H]1Cc2c(ccc3c2O[C@@H]2COc4cc(OC)c(OC)cc4[C@@H]2C3=O)O1 [rotenone] | modest increase at low rotenone doses, which became most pronounced at the highest doses | monotonic decrease | first increased with increasing, yet low, rotenone doses but returned to original levels as doses were further increased | –
2 | O=c1ccn([C@@H]2O[C@H](CO)[C@@H](O)[C@H]2O)c(=O)[nH]1 [uridine] | – | – | – | unable to rescue
